Source: the NIST ThermoML archive (doi:10.1016/j.fluid.2018.11.012)
Numbers after ± are expanded uncertainties.

Key:
[1] = 298.15 K; 101.33 kPa; Liquid; Vibrating tube method
[2] = refractive index (Na D-line) (dimensionless); conditions: 298.15 K; 101.33 kPa; Liquid; Standard Abbe refractometry

Structure (SMILES) | mass density [1] [kg/m3] | refractive index [2]
CCCCCCCCCCCCCC [tetradecane] | 759.38 ± 0.26 | 1.4269 ± 0.0008
CC1CCC(=O)O1 (centres undefined) [γ-valerolactone] | 1049.25 ± 0.3 | 1.4312 ± 0.0008
